PMC9952136 (Antibiotics, 2023)
Where two headings read alike, the source gives them in different places.

Legend:
[1] = Pharmacokinetic studies of ENR and SAL in broilers (plasma, non-compartmental); conditions: for AUC(0-t) / AUC(0-inf) / Cmax / k el / MRT last / MRT inf / Tmax / half-life: AA broiler, plasma, po, 7.5 mg/kg, n=6, Mean ± SD; for AUC(0-t): AUC0-36h; for AUC(0-t) / AUC(0-inf) / Cmax / k el / MRT last / MRT inf / Tmax: broiler plasma; for AUC(0-inf): AUC0-∞; for k el: Ke; for MRT last: MRT0-36h; for MRT inf: MRT0-∞; for half-life: t1/2, broiler plasma;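 as to all read-outs here: plasma drug levels measured by HPLC or LC-MS/MS, with PK parameters obtained through non-compartmental analysis in WinNonlin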
Method: (§6) Mobile phase compositions were 0.5 mol/L H3PO4-triethylamine (pH = 2.4, phase A) and acetonitrile (phase B) (82:18, v/v) [1, 18].
(§7) SAL (Shandong Lukang, Jining, China): The LC-MS/MS assay method for SAL were introduced in the previous research [21]. The separate system of HPLC used 0.1% formic acid solution (phase A) and methanol (phase B) as mobile phase. […] Positive ion scanning mode was used; DP, CE, and CXP are 59.1 V, 65.64 V, and 12 V, respectively.
(§8) Plasma sample: Add 0.8 mL of acetonitrile to 0.2 mL of plasma to precipitate proteins. After vortexing the mixture for 5 min, centrifuge at 12,000 rpm for 10 min. Transfer the supernatant to a new 10 mL tube. The supernatant was blown dry with nitrogen at 40 °C, and the pellet was redissolved with 1 mL of methanol. The methanol reconstituted solution was filtered through a 0.2 μm filter.
(§9) PK parameters were calculated with WinNonlin software using non-compartmental settings (version 6.4; Pharsight Corporation, Mountain View, CA, USA).

P-gp [2] = assay: P-gp gene and protein expression in Caco-2 cells (qPCR, WB); assay type: cell-based, human; conditions: ENR 5 and 20 μmol/L, SAL 0.5 and 2 μmol/L; 12 or 24 h
Method: (§1) The relative expressions of CYP3A4, P-gp and BCRP in tissue of broiler and Caco-2 were evaluated via quantitative real-time PCR (RT–qPCR, Bio-Rad, Hercules, CA, USA). […] Relevant cells were treated as indicated and total RNA was extracted from cells and tissue using RNA isolater Total RNA Extraction Reagent (R401-01, Vazyme Biotech Co., Ltd., Nanjing, China) following the manufacturer’s protocols, then reverse-transcribed into cDNA using HiScript II Q Select RT SuperMix for Qpcr (R233-01, Vazyme Biotech Co., Ltd.). The cDNA was determined by quantitative RT-PCR using 2 × AceQ qPCR SYBR Green Master Mix (Q141-02, Vazyme Biotech Co., Ltd.) with the primers (listed in Supplementary Tables S1 and S2). All data were analyzed using the 2−ΔΔCt method.
(§2) These were then collected in a RIPA lysis buffer (P0013B, Beyotime, Shanghai, China) and incubated on a rocker with ice for 30 min. Cell and tissue lysates were centrifuged at 12,000× g/4 °C for 15 min and lysates were boiled at 100 °C for 5 min in 5× SDS Loading Buffer and resolved by SDS-PAGE. […] The immunoreactive bands were visualized on a gel imaging system (Tanon 5200 Multi, Tanon Technology Co., Ltd., Shanghai, China), and the intensities of the immunoreactive bands were quantified using Quantity One.

CYP3A4 (broiler) = assay: Probe substrate (testosterone) assay of CYP3A4 activity in broiler liver microsomes; assay type: in vitro ADME; conditions: chicken (broiler)
Method: (§3) Probe drugs: a volume of 0.2 mL cold acetonitrile were added into 0.05 mL microsome incubation solution, then vortexed for 2 min to extract target compounds. The mixture was centrifuged at 12,000 rpm for 15 min. The supernatant was filtered through a 0.2 μm filter.
(§4) […]. […] Except for testosterone, which was incubated for 30 min, all other probe drugs were incubated for 4 h.

broiler CYP3A4 = assay: as above; assay type: in vitro ADME
Method: as §3, §4

BCRP [3] = assay: BCRP gene and protein expression in Caco-2 cells (qPCR, WB); assay type: cell-based, human; conditions: ENR 5 and 20 μmol/L; 12 and 24 h; concentration- and time-dependent
Method: as §1, §2

CYP3A4 [4] = assay: Screening of CYP450 enzymes that metabolize SAL and ENR with positive inhibitors (KCZ) in broiler liver microsomes; assay type: in vitro ADME; conditions: 50 μmol/L ENR; 0.5 mg/mL broiler liver microsomes; KCZ pre-incubated 30 min at 41 °C, then 4 h
Method: as §3
Briefly, alpha-naphthoflavone (α-NIF, inhibitor of CYP1A2), sulfafenpyrazole (SUl, CYP2D6), sodium diethyldithiocarbamate (DIE, inhibitor of CYP2E1), omeprazole (OMP, inhibitor of CYP2C45) and ketoconazole (KCZ, inhibitor of CYP3A4) were incubated with 50 μmol/L SAL or the ENR-NADPH system, respectively. The system consisted of 0.5 mg/mL broiler liver microsomes, 0.05 mmol/L Tris-HCl buffer, and 1 mmol/L NADPH.

CYP3A4 [5] = assay: mRNA (RT-qPCR) and protein (Western blot) expression of hepatic CYP3A4 in treated broilers; assay type: in vivo
Method: as §1
These were then collected in a RIPA lysis buffer (P0013B, Beyotime, Shanghai, China) and incubated on a rocker with ice for 30 min. Cell and tissue lysates were centrifuged at 12,000× g/4 °C for 15 min and lysates were boiled at 100 °C for 5 min in 5× SDS Loading Buffer and resolved by SDS-PAGE. Proteins were transferred into a polyvinylidene fluoride (PVDF) membrane (Bio-Rad) and then incubated with the CYP3A4 Rabbit pAb (Cat#A2544, ABclonal, Wuhan, China), ABCG2 Rabbit pAb (Cat#A5661, ABclonal, Wuhan, China), P-gp Rabbit pAb (Cat#A11747, ABclonal, Wuhan, China) over night, respectively. They were then incubated with the HRP Goat Anti-Rabbit IgG (Cat#AS014, ABclonal, Wuhan, China) for 1.5 h. Immobilon Western Chemiluminescent HRP Substrate (Millipore) was used for protein detection. The immunoreactive bands were visualized on a gel imaging system (Tanon 5200 Multi, Tanon Technology Co., Ltd., Shanghai, China), and the intensities of the immunoreactive bands were quantified using Quantity One.

broiler CYP2E1 = assay: Probe substrate assay of CYP2E1 activity in broiler liver microsomes; assay type: in vitro ADME
Method: Probe drugs: a volume of 0.2 mL cold acetonitrile were added into 0.05 mL microsome incubation solution, then vortexed for 2 min to extract target compounds. […] The supernatant was filtered through a 0.2 μm filter.

P-gp [6] = assay: mRNA and protein expression of P-gp in liver and small intestine of treated broilers; assay type: in vivo, broiler; conditions: single gavage compared with the saline group
Method: as §1
(§5) These were then collected in a RIPA lysis buffer (P0013B, Beyotime, Shanghai, China) and incubated on a rocker with ice for 30 min. […] Proteins were transferred into a polyvinylidene fluoride (PVDF) membrane (Bio-Rad) and then incubated with the CYP3A4 Rabbit pAb (Cat#A2544, ABclonal, Wuhan, China), ABCG2 Rabbit pAb (Cat#A5661, ABclonal, Wuhan, China), P-gp Rabbit pAb (Cat#A11747, ABclonal, Wuhan, China) over night, respectively. […] The immunoreactive bands were visualized on a gel imaging system (Tanon 5200 Multi, Tanon Technology Co., Ltd., Shanghai, China), and the intensities of the immunoreactive bands were quantified using Quantity One.

BCRP [7] = assay: mRNA and protein expression of BCRP in liver and small intestine of treated broilers; assay type: in vivo, broiler
Method: as §1, §5

broiler CYP2A6 = assay type: in vitro ADME; conditions: microsomes
Method: as §3

human P-gp = test system: human P-gp; parameters: method as in PMID 21573958; conditions: compared with P-gp inhibitor verapamil (Ver); cited from earlier work
[8] = in vivo, po, 6 mg/kg
Method: as §6, §7, §8, §9

P-gp [9] = test system: P-gp; parameters: method as in PMID 30989413; conditions: cited from earlier work
in vivo = conditions: po, 6 mg/kg
Method: as §6, §7, §8, §9

[10] = SAL (5 d) + ENR: SAL 60 mg/kg mixed feeding 5 days, then ENR 7.5 mg/kg gavage
[11] = SAL + ENR: ENR 7.5 mg/kg + SAL 6.0 mg/kg co-gavage
[12] = abstract, broilers, group not given

CCN1CCN(c2cc3c(cc2F)c(=O)c(C(=O)O)cn3C2CC2)CC1 [ENR, Enrofloxacin]
AUC(0-t) ([1]; ENR (7.5 mg/kg) gavage alone): 12800 ± 3990 ng·h/mL | AUC(0-t) [1, 10]: 15300 ± 1290 ng·h/mL | AUC(0-t) [1, 11]: 16700 ± 1290 ng·h/mL | AUC(0-inf) ([1]; ENR (7.5 mg/kg) gavage alone): 13500 ± 4080 ng·h/mL | AUC(0-inf) [1, 10]: 16000 ± 1450 ng·h/mL | AUC(0-inf) [1, 11]: 17500 ± 1450 ng·h/mL | Cmax ([1]; ENR (7.5 mg/kg) gavage alone): 1490 ± 540 ng/mL | Cmax [1, 10]: 1600 ± 160 ng/mL | Cmax [1, 11]: 1480 ± 160 ng/mL | k el ([1]; ENR (7.5 mg/kg) gavage alone): 1.94e-05 s⁻¹ | k el [1, 10]: 2.5e-05 s⁻¹ | k el [1, 11]: 2.5e-05 s⁻¹ | MRT last ([1]; ENR (7.5 mg/kg) gavage alone): 8.29 ± 1.03 h | MRT last [1, 10]: 8.35 ± 0.52 h | MRT last [1, 11]: 9.06 ± 0.52 h | MRT inf ([1]; ENR (7.5 mg/kg) gavage alone): 10.8 ± 1.76 h | MRT inf [1, 10]: 10.1 ± 0.9 h | MRT inf [1, 11]: 10.6 ± 0.9 h | Tmax ([1]; ENR (7.5 mg/kg) gavage alone): 1.5 ± 0.55 h | Tmax [1, 10]: 2.17 ± 1.03 h | Tmax [1, 11]: 2.67 ± 1.03 h | half-life ([1]; ENR (7.5 mg/kg) gavage alone): 7.45 ± 1.71 h | half-life [1, 10]: 8.13 ± 0.86 h | half-life [1, 11]: 8.65 ± 0.54 h | increase of area under the curve by SAL [1, 12]: 1.3 times | increase of elimination half-life by SAL [1, 12]: 1.2 times | gene and protein expressions of P-gp in Caco-2 cells (P-gp [2]): significantly decreased | inhibition at 30 min, 100 µmol/L (CYP3A4 (broiler); probe testosterone (TS), 100 µmol/L, pre-incubated 30 min at 41 °C, broiler liver microsomes, probe testosterone, read-out: inhibition rate on CYP3A4 (TS metabolism)): 32% | effect on CYP3A4 at short pre-incubation (broiler CYP3A4; 0 and 3 min of pre-incubation): induced | dependence of CYP3A4 inhibition on pre-incubation time (broiler CYP3A4; 100 μmol/L, pre-incubated 0, 3, 5, 15, 30 min): time-dependent | dependence of CYP3A4 inhibition on concentration (broiler CYP3A4; 50, 100 and 500 μmol/L): concentration-dependent inhibitory effects | expression of BCRP in Caco-2 cells (BCRP [3]): decreased | decrease of ENR metabolic rate after addition of the CYP3A4-specific inhibitor KCZ (CYP3A4 [4]): 32% | effect of ENR on mRNA and protein levels of CYP3A4 in liver (CYP3A4 [5]; ENR (5d) + SAL group contrasted with single SAL group): significantly inhibited | effect of ENR on CYP3A4 gene expression in liver (CYP3A4 [5]; ENR + SAL group contrasted with single SAL group): overexpression | effect on protein expression of CYP3A4 in liver (CYP3A4 [5]; single gavage (ENR 7.5 mg/kg or SAL 6.0 mg/kg) compared with physiological saline group): induced

CC[C@@H](C(=O)[C@@H](C)[C@@H](O)[C@H](C)CCc1ccc(C)c(O)c1C(=O)O)[C@H]1O[C@](CC)([C@H]2CC[C@](O)(CC)[C@H](C)O2)C[C@@H]1C [LAS, lasalocid]
effect on CYP2E1 activity (broiler CYP2E1): inductive effects

CC[C@@H](C(=O)[C@@H](C)[C@@H](O)[C@H](C)[C@@H]1O[C@@H]([C@@H](CC)C(=O)O)CC[C@@H]1C)[C@H]1O[C@]2(C=C[C@@H](O)[C@]3(CC[C@@](C)([C@H]4CC[C@](O)(CC)[C@H](C)O4)O3)O2)[C@H](C)C[C@@H]1C [SAL, salinomycin]
effect on P-gp gene expression levels in the liver and small intestine (P-gp [6]): suppress | effect of SAL on expression of BCRP (BCRP [7]; ENR + SAL group compared with single ENR group): significantly inhibited | effect of SAL on expression of BCRP (BCRP [7]; SAL (5d) + ENR group compared with single ENR group): significantly induced | effect on CYP2A6 activity (broiler CYP2A6): inductive effects | inhibition at 30 min, 100 µmol/L (CYP3A4 (broiler); broiler, microsomes): 52% | inhibition of human P-gp (human P-gp): effectively inhibit | MRT0-48h ([8]; AA broiler): 5.53 ± 1.16 h | MRT0-∞ ([8]; AA broiler): 7.53 ± 2.39 h | AUC0-48h ([8]; AA): 218.96 ± 42.32 ng·h/mL | AUC0-∞ ([8]; AA): 264.78 ± 40.60 ng·h/mL | effect on P-gp in A549 cells (P-gp [9]; 5 μM SAL, 30 min and 1 h): no significant effect | effect on expression of P-gp in A549 cells (P-gp [9]; SAL treatment for 72 h): significantly induced | k el (in vivo; AA broiler, Ke): 1.39e-05 s⁻¹ | Tmax (in vivo; AA, Tmax): 0.42 ± 0.3 h | half-life (in vivo; AA, t1/2): 14.2 ± 3.1 h
